The record followed here is patent US11938136B2, “Compositions for treating spinal muscular atrophy” (Hoffmann-La Roche Inc., priority 2015, dated 2024).

Where two headings read alike, the source gives them in different places.

One experiment relates to SMN2 splicing. The experiment can be described thus: Ex vivo whole blood assay, SMN2 splicing. It counts as cell-based, human. To be noted: whole blood cells from healthy volunteers, 4 hours. As to the method:
(A) SMN2 splicing in SMA Type 1 fibroblasts. (B) SMN protein in SMA Type 1 fibroblasts. (C) SMN protein in SMA Type 1 motor neurons. (D) SMN1 and SMN2 splicing in whole blood derived from HV. Fibroblasts from SMA Type 1 patients were cultured for 24 hours (A) or 48 hours (B); motor neurons from SMA Type 1 patient iPSCs (induced Pluripotent Stem Cells) were cultured for 72 hours (C) and whole blood cells from healthy volunteers (HV) for 4 hours (D) in the presence of the compound of Example 20. SMN splicing was assessed by RT-PCR, and SMN protein levels were assessed by homogenous time-resolved fluorescence (HTRF) in fibroblast lysates, and by immunostaining for SMN in motor neurons. Data represent means standard error (SEM) of 3 evaluations per data point and are expressed as fold change vs. untreated controls. To further assess SMN2 splicing as a potential blood biomarker, an ex vivo assay was developed using whole blood cells from healthy volunteers in which SMN1 and SMN2 splicing was assessed after 4 hours treatment with the compound of Example 20 (at this time point, maximal splicing changes were achieved).

The subject of experiment [1] is full length SMN2 minigene mRNA. The experiment can be described thus: SMN2 minigene mRNA splicing RT-qPCR assay in cultured cells. The format is cell-based, human. The source says:
The term “EC1.5x concentration for production of full length SMN2 minigene mRNA” (or “EC1.5x minigene”) is defined as that concentration of test compound that is effective in increasing the amount of full length SMN2 minigene mRNA to a level 1.5-fold greater relative to that in vehicle-treated cells.
The reverse transcription-quantitative PCR-based (RT-qPCR) assay is used to quantify the level of the full length SMN2 minigene (referred to herein by the term “FL SMN2mini”) mRNA containing SMN2 exon 7 in a HEK293H cell line stably transfected with said minigene and treated with a test compound. Materials used and respective sources are listed below in Table 1.
The SMN2-A minigene construct was prepared as described in International Patent Application WO2009/151546A1 page 145 paragraph [00400] to page 147 paragraph [00412](incl. FIG. 1 and FIG. 3 therein).
HEK293H cells stably transfected with the SMN2-A minigene construct (10,000 cells/well) are seeded in 200 μL of cell culture medium (DMEM plus 10% FBS, with 200 μg/mL hygromycin) in 96-well flat-bottom plates and the plate is immediately swirled to ensure proper dispersal of cells and the formation of an even monolayer of cells. Cells are allowed to attach for 6 hours. Test compounds are serially diluted 3.16-fold in 100% DMSO to generate a 7-point concentration curve. A solution of test compound (1 μL, 200× in DMSO) is added to each cell-containing well and the plate is incubated for 24 hours in a cell culture incubator (37° C., 5% CO2, 100% relative humidity). 2 replicates are prepared for each test compound concentration. The cells are then lysed in the Cells-To-Ct lysis buffer and the lysate is stored at −80° C.
Full length SMN2-A minigene and GAPDH mRNA are quantified using the primers and probes referenced in WO2014/209841A2 on page 80 in Table 1. Primer SMN Forward A (SEQ ID NO.1) hybridizes to a nucleotide sequence in exon 7 (nucleotide 22 to nucleotide 40), primer SMN Reverse A (SEQ ID NO.2) hybridizes to a nucleotide sequence in the coding sequence of Firefly luciferase, SMN Probe A (SEQ ID NO.3) hybridizes to a nucleotide sequence in exon 7 (nucleotide 50 to nucleotide 54) and exon 8 (nucleotide 1 to nucleotide 21). The combination of these three oligonucleotides detects only SMN1 or SMN2 minigenes (RT-qPCR) and will not detect endogenous SMN1 or SMN2 genes.
The SMN forward and reverse primers are used at final concentrations of 0.4 μM. The SMN probe is used at a final concentration of 0.15 μM. The GAPDH primers are used at final concentrations of 0.2 μM and the probe at 0.15 μM.
The SMN2-minigene GAPDH mix (15 μL total volume) is prepared by combining 7.5 μL of 2×RT-PCR buffer, 0.4 μL of 25×RT-PCR enzyme mix, 0.75 μL of 20×GAPDH primer-probe mix, 4.0075 μL of water, 2 μL of 10-fold diluted cell lysate, 0.06 μL of 100 μM SMN forward primer, 0.06 μL of 100 μM SMN reverse primer, and 0.225 μL of 100 μM SMN probe.
PCR is carried out at the following temperatures for the indicated time: Step 1: 48° C. (15 min); Step 2: 95° C. (10 min); Step 3: 95° C. (15 sec); Step 4: 60° C. (1 min); then repeat Steps 3 and 4 for a total of 40 cycles.
Each reaction mixture contains both SMN2-A minigene and GAPDH primers/probe sets (multiplex design), allowing simultaneous measurement of the levels of two transcripts.
The increase in the abundance of the FL SMN2mini mRNA relative to that in cells treated with vehicle control is determined from real-time PCR data using a modified ΔΔCt method (as described in Livak and Schmittgen, Methods, 2001, 25:402-8). The amplification efficiency E is calculated from the slope of the amplification curve for FL SMN2mini and GAPDH individually. The abundance of FL SMN2mini and GAPDH mRNA are then calculated as (1+E)^−Ct, where Ct is the threshold value for each amplicon. The abundance of FL SMN2mini mRNA is normalized to GAPDH mRNA abundance. […]

A further experiment has as its system FoxM1. The experiment can be described thus: Alternative splicing of FoxM1 in SMA Type I patient fibroblasts (RT-qPCR). The format is cell-based. To be noted: Homo sapiens, Fibroblast, 24 hours. On the procedure: FIG. 5. Alternative Splicing of FoxM1 in vitro SMA Type I patient fibroblasts were treated with the compound of Example 20 for 24 hours, and FoxM1 full-length (FL) and exon 9-lacking (Δ9) mRNAs were analyzed by RT-qPCR. Data represent means SEM of 6 repetitions and are expressed as fold change vs. untreated controls.
FoxM1, a gene alternatively spliced by other splicing modifier compounds, encodes a cell cycle regulator. […] 2007 February; 3(1):1-3. Laoukili et al, Biochim Biophys Acta. 2007 January; 1775(1):92-102]. […] Increased expression of the FoxM1A isoform, together with decreased expression of FoxM1 isoforms lacking exon 9, has the capability to disturb and inhibit cell cycle progression if splicing changes are at a level that is biologically significant. Thus, the compound of Example 20 acts in a similar way on the SMN2 and FoxM1 splicing machinery, but with opposing outcomes with regard to protein function and at varying degrees. The EC50 for MADD, a gene also identified as affected by splicing modifiers including the compound of Example 20 at high concentrations and known to be involved in apoptotic processes, is not known.

On to `Cc1cn2nc(-c3cc(=O)n4cc(N5CCNC6(CC6)C5)ccc4n3)cc(C)c2n1` [Example 20, 7-(4,7-diazaspiro[2.5]octan-7-yl)-2-(2,8-dimethylimidazo[1,2-b]pyridazin-6-yl)pyrido[1,2-a]pyrimidin-4-one], for which, in the experiment on SMN2 splicing, the “concentration at which effects on splicing were evident” value is “above 100 nM” and the “effect on SMN2 splicing” value was “dose-dependently altered towards inclusion of exon 7”. Besides, the EC (1.5-fold increase) in experiment [1] (Homo sapiens, HEK293-H, HEK293H cells stably transfected with SMN2-A minigene, 24 hours, 7-point concentration curve, read-out: EC1.5x minigene) came to 0.0047 ± 0.0007 µM. The “maximum induction of SMN2 minigene full length mRNA” value in experiment [1] (cells expressing the SMN2 minigene) amounted to 20 fold. In the experiment with FoxM1 (read-out: EC50 for FoxM1 FL mRNA), the EC50 worked out at 67 ± 32 nM. Moreover, the EC50 with FoxM1 (read-out: EC50 for FoxM1 Δ9 mRNA) came to 139 ± 43 nM.
